Paper PMC4893628, “Chalcone-based Selective Inhibitors of a C4 Plant Key Enzyme as Novel Potential Herbicides” (Scientific Reports, 2016)
Where two headings read alike, the source gives them in different places.

Tests used:
F. pringlei PEPC = biological target: T1, F. pringlei PEPC (Flaveria pringlei, UniProt Q01647); assay: PEPC coupled spectrophotometric assay, C3 PEPC; type: biochemical; details: read-out: IC50 F. pringlei PEPC
T1 construct: the full-length ppcA gene of PEPC from F. trinervia (EMBL-Bank X61304) and F. pringlei (EMBL-Bank Z48966) were cloned in pETEV16b; made in house; host or cells: Escherichia coli BL21-Gold(DE3)
T1 sequence (Q01647 1-967): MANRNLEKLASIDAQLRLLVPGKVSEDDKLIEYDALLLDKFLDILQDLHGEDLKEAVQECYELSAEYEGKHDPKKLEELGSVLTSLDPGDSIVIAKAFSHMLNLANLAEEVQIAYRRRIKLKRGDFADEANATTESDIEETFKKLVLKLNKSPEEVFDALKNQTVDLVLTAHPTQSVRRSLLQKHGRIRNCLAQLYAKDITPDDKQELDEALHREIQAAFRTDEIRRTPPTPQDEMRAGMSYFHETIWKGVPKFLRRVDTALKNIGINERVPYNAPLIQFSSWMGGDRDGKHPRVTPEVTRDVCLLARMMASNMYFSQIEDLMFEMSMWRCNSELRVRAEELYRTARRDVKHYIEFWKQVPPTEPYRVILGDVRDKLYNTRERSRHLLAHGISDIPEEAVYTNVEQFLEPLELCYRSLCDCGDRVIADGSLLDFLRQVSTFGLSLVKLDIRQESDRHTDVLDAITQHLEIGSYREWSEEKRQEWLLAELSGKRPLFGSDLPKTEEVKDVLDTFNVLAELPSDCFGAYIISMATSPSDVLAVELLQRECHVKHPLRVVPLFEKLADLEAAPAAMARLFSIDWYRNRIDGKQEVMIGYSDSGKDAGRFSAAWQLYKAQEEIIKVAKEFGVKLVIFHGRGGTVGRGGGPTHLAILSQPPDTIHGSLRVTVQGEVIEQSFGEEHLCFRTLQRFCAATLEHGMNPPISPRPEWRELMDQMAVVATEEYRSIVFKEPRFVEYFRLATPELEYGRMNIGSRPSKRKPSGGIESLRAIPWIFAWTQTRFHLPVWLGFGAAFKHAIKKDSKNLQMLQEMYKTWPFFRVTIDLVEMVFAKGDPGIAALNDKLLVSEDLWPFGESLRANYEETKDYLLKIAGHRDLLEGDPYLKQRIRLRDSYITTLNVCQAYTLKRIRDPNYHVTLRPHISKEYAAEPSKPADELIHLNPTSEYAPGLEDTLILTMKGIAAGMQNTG
Experimental: The IC50 values of small molecule compounds on F. pringlei and F. trinervia PEPCs were determined using PEPC coupled spectrophotometric assay. The amount of NADH oxidized by NADH-malate dehydrogenase was measured by the decrease in absorbance at 340 nm in a Beckman DU-800 spectrophotometer, thus the value is in proportion to the corresponding substrate conversion of the enzyme. The reaction mixture included the PEPC enzymes (0.05 U), NADH (150 μM), malate dehydrogenase (2 U) and different concentration of compounds in the buffer containing 50 mM HEPES/KOH pH 7.5, 10 mM MgCl2, 10 mM KHCO3 in a final volume of 600 μl at 25 °C. The reactions were started by adding two folds of the Km value of PEP for each enzyme. The data were analyzed using GraFit (Erithacus Software, UK).

[1] = test system: Pseudomonas putida KT2440; assay: Bacterial growth in microscale cultivation, P. putida; type: cell-based; details: for activity at 0.3 µM / activity at 3 µM / activity at 30 µM / activity at 0.4 µM / activity at 4 µM / activity at 40 µM: Pseudomonas putida
Experimental: The following bacteria were cultivated in the presence of trans-chalcone derived inhibitors: Corynebacterium glutamicum ATCC13032[43], Escherichia coli K-12 MG1655[44], Pseudomonas putida KT2440[45], and Bacillus subtilis 168[46]. The growth of these bacteria was monitored in flower-well plates shaken at 1200 rpm as backscatter at 620 nm (gain 20) using a BioLector® microscale cultivation system (m2p labs, Baesweiler, Germany). For further experimental details please refer to the Supplementary Information.
medium or the appropriate minimal medium and shaken at 140 rpm overnight. For inoculation of
the main culture, cells equivalent to an optical density at 600 nm of 0.5 (C. glutamicum, E. coli,
and P. putida) or 0.25 (B. subtilis) in 800 µL medium were washed and resuspended in fresh
media. Inhibitor substances were dissolved in DMSO and added to the media to a final
Since the least polar trans-chalcone and 2’-hydroxychalcone precipitated in the growth media at
the highest concentrations, the maximal concentration of these compounds was reduced to 400
µM and 100 µM, respectively. The final backscatter at 620 nm, the growth rate (h-1), and the
duration of the lag phase of all cultures were determined in a BioLector microscale cultivation
system in comparison to negative controls supplemented with the solvent DMSO. A longer lag

[2] = KT2440, complex medium, 0.3 µM, relative to control, read-out: Final Backscatter
[3] = KT2440, complex medium, 0.3 µM, relative to control, read-out: Growth rate
[4] = KT2440, complex medium, 3 µM, relative to control, read-out: Final Backscatter
[5] = KT2440, complex medium, 3 µM, relative to control, read-out: Growth rate
[6] = KT2440, complex medium, 30 µM, relative to control, read-out: Final Backscatter
[7] = KT2440, complex medium, 30 µM, relative to control, read-out: Growth rate
[8] = KT2440, minimal medium, 0.3 µM, relative to control, read-out: Final Backscatter
[9] = KT2440, minimal medium, 0.3 µM, relative to control, read-out: Growth rate
[10] = KT2440, minimal medium, 3 µM, relative to control, read-out: Final Backscatter
[11] = KT2440, minimal medium, 3 µM, relative to control, read-out: Growth rate
[12] = KT2440, minimal medium, 30 µM, relative to control, read-out: Final Backscatter
[13] = KT2440, minimal medium, 30 µM, relative to control, read-out: Growth rate
[14] = complex medium, 0.3 µM, relative to control
[15] = complex medium, 3 µM, relative to control
[16] = complex medium, 30 µM, relative to control
[17] = minimal medium, 0.3 µM, relative to control
[18] = minimal medium, 3 µM, relative to control
[19] = minimal medium, 30 µM, relative to control

SMILES	activity at 0.3 µM [1, 2] [%]	activity at 0.3 µM [1, 3] [%]	activity at 3 µM [1, 4] [%]	activity at 3 µM [1, 5] [%]	activity at 30 µM [1, 6] [%]	activity at 30 µM [1, 7] [%]	activity at 0.3 µM [1, 8] [%]	activity at 0.3 µM [1, 9] [%]	activity at 3 µM [1, 10] [%]	activity at 3 µM [1, 11] [%]	activity at 30 µM [1, 12] [%]	activity at 30 µM [1, 13] [%]	Lag Phase [1, 14]	Lag Phase [1, 15]	Lag Phase [1, 16]	Lag Phase [1, 17]	Lag Phase [1, 18]	Lag Phase [1, 19]	further results
O=C(/C=C/c1ccc(O)c(O)c1)c1c(O)cc(O)cc1O [Compound 11, 2′,4′,6′,3,4-Pentahydroxy-chalcone]	92.6	108	96.8	106	92.5	105	93.9	96.8	94.9	98.7	99	95.2	95,5%	97,5%	97,0%	99,3%	98,9%	98,9%	IC50 (F. pringlei PEPC): 8.2 ± 0.3 µM
O=C(/C=C/c1cc(O)c(O)c(O)c1)c1ccc(O)cc1O [Compound 9, 2′,4′,3,4,5-Pentahydroxychalcone]	94.7	99.4	96.9	101	93	102	93.1	109	96.5	108	98.3	108	101,2%	102,4%	99,4%	99,0%	99,3%	99,7%	
O=C(/C=C/c1ccc(O)c(O)c1)c1ccc(O)cc1O [Compound 8, 2′,4′,3,4-Tetrahydroxy-chalcone]																			activity at 0.4 µM ([1]; KT2440, complex medium, 0.4 µM, relative to control, read-out: Final Backscatter): 94.7%; activity at 0.4 µM ([1]; KT2440, complex medium, 0.4 µM, relative to control, read-out: Growth rate): 90.8%; activity at 4 µM ([1]; KT2440, complex medium, 4 µM, relative to control, read-out: Final Backscatter): 97%; activity at 4 µM ([1]; KT2440, complex medium, 4 µM, relative to control, read-out: Growth rate): 97.4%; activity at 40 µM ([1]; KT2440, complex medium, 40 µM, relative to control, read-out: Final Backscatter): 94.9%; activity at 40 µM ([1]; KT2440, complex medium, 40 µM, relative to control, read-out: Growth rate): 95.3%; activity at 0.4 µM ([1]; KT2440, minimal medium, 0.4 µM, relative to control, read-out: Final Backscatter): 87%; activity at 0.4 µM ([1]; KT2440, minimal medium, 0.4 µM, relative to control, read-out: Growth rate): 83.7%; activity at 4 µM ([1]; KT2440, minimal medium, 4 µM, relative to control, read-out: Final Backscatter): 89.8%; activity at 4 µM ([1]; KT2440, minimal medium, 4 µM, relative to control, read-out: Growth rate): 89%; activity at 40 µM ([1]; KT2440, minimal medium, 40 µM, relative to control, read-out: Final Backscatter): 94.8%; activity at 40 µM ([1]; KT2440, minimal medium, 40 µM, relative to control, read-out: Growth rate): 90%; Lag Phase ([1]; complex medium, 0.4 µM, relative to control): 92,6%; Lag Phase ([1]; complex medium, 4 µM, relative to control): 93,2%; Lag Phase ([1]; complex medium, 40 µM, relative to control): 96,3%; Lag Phase ([1]; minimal medium, 0.4 µM, relative to control): 99,6%; Lag Phase ([1]; minimal medium, 4 µM, relative to control): 99,6%; Lag Phase ([1]; minimal medium, 40 µM, relative to control): 98,5%
O=C(/C=C/c1ccccc1)c1ccc(O)c(O)c1O [Compound 10, 2′,3′,4′-Trihydroxychalcone]													103,9%	100,9%	107,3%	100,0%	101,5%	99,2%	activity at 0.3 µM ([1]; KT2440, read-out: Final Backscatter, complex medium, 0.3 µM, relative to control): 103%; activity at 3 µM ([1]; KT2440, read-out: Final Backscatter, complex medium, 3 µM, relative to control): 102%; activity at 30 µM ([1]; KT2440, read-out: Final Backscatter, complex medium, 30 µM, relative to control): 105%; activity at 0.3 µM ([1]; KT2440, read-out: Final Backscatter, minimal medium, 0.3 µM, relative to control): 101%; activity at 3 µM ([1]; KT2440, read-out: Final Backscatter, minimal medium, 3 µM, relative to control): 101%; activity at 30 µM ([1]; KT2440, read-out: Final Backscatter, minimal medium, 30 µM, relative to control): 103%; activity at 0.3 µM ([1]; KT2440, read-out: Growth rate, complex medium, 0.3 µM, relative to control): 114%; activity at 3 µM ([1]; KT2440, read-out: Growth rate, complex medium, 3 µM, relative to control): 103%; activity at 30 µM ([1]; KT2440, read-out: Growth rate, complex medium, 30 µM, relative to control): 105%; activity at 0.3 µM ([1]; KT2440, read-out: Growth rate, minimal medium, 0.3 µM, relative to control): 94.8%; activity at 3 µM ([1]; KT2440, read-out: Growth rate, minimal medium, 3 µM, relative to control): 96%; activity at 30 µM ([1]; KT2440, read-out: Growth rate, minimal medium, 30 µM, relative to control): 91.3%
